In PubChem BioAssay (NCI):
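Tested at 5 concentrations; 48 h exposure; 96-well plates; endpoints linearly interpolated, else capped at highest concentration. At the GI50, growth is halved. TGI is the concentration that stops growth completely.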

What was measured:
Experiment in all cases: NCI anticancer screen, dose series, 48 h
HT29 colon = test system: HT29 colon
IGROV1 ovarian = test system: IGROV1 ovarian
MOLT-4 leukemia = test system: MOLT-4 leukemia
NCI-H226 lung = test system: NCI-H226 lung
NCI-H23 lung = test system: NCI-H23 lung
NCI-H460 lung = test system: NCI-H460 lung
SK-MEL-2 melanoma = test system: SK-MEL-2 melanoma
UACC-257 melanoma = test system: UACC-257 melanoma
HOP-92 NSCLC = test system: HOP-92 NSCLC

SMILES | TGI (HT29 colon) [µM] | TGI (IGROV1 ovarian) [µM] | TGI (MOLT-4 leukemia) [µM] | TGI (NCI-H226 lung) [µM] | TGI (NCI-H23 lung) [µM] | TGI (NCI-H460 lung) [µM] | TGI (SK-MEL-2 melanoma) [µM] | TGI (UACC-257 melanoma) [µM] | TGI (HOP-92 NSCLC) [µM] | GI50 (NCI-H23 lung) [µM]
C=C(C)C1(Sc2ccc(OC)cc2)CC1 | 61.8 | 98.4 | 40.3 | 54.7 | > 100 | > 100 | 56.5 | 55.7 |  | 
Cc1ccc(C)n1-c1ccccc1C1C=Cn2c(=O)oc3c(OC(C)C)c(OC(C)C)c(O)c1c32 (stereo not given) | > 100 | > 100 | > 100 | 36.1 | > 100 | > 100 | 78.2 | > 100 | > 100 | 
COc1cc2nc(-c3cccs3)nc(Nc3ccccc3C(=O)NN)c2cc1OC | > 100 | > 100 | > 100 | > 100 | > 100 | > 100 | > 100 | > 100 | > 100 | 
O=S(=O)(O)c1cc(S(=O)(=O)O)c2cc(N=Nc3ccc(N=Nc4ccc(/C=C/c5ccc(N=[N+]([O-])c6ccc(/C=C/c7ccc(N=Nc8ccc(N=Nc9ccc%10cc(S(=O)(=O)O)cc(S(=O)(=O)O)c%10c9)cc8)cc7S(=O)(=O)O)c(S(=O)(=O)O)c6)cc5S(=O)(=O)O)c(S(=O)(=O)O)c4)cc3)ccc2c1 | > 100 | > 100 | > 100 | > 100 | > 100 | > 100 | > 100 | > 100 | 98.9 | 
OCc1ccc2c(c1)CC1(Cc3ccccc3C1)C2 | 33.6 |  |  | > 100 | 82.3 | 44.6 |  | 43 | 38 | 
CCOc1ccccc1N=NC1C(=O)N(C(=O)CC(=O)Nc2ccccc2C)N=C1C (stereo not given) | > 100 | > 100 | > 100 | > 100 | > 100 | > 100 | > 100 |  | 40.8 | 
CCOC(=O)c1ccc2nc3n(c2c1)C(c1c(F)cccc1F)SC3 (stereo not given) | > 100 | > 100 | > 100 | 87 | > 100 | > 100 | > 100 | > 100 | > 100 | 
COC1C(O)C(C)OC(O[C@H]2CC[C@@]3(C)C(CC[C@@H]4[C@@H]3CC[C@]3(C)[C@@H](C(C)OC5OC(CO)C(O)C(O)C5O)CC[C@]43O)C2)C1O (stereo not given in full) | > 25 | > 25 | > 25 | > 25 | > 25 | > 25 | > 25 | > 25 | > 25 | 
COC(=O)NC(Cc1ccccc1)NC(=O)OC(C)(C)C (stereo not given) | > 100 | > 100 | > 100 | > 100 | > 100 | > 100 | > 100 | > 100 | > 100 | 
N=c1ncn(C/C=C/c2ccccc2)c2nc[nH]c12 | > 100 | > 100 | 36.5 |  | > 100 | > 100 | > 100 | > 100 | > 100 | 
CCCCCCCCCCCC(=O)N(CCCCCCCCC)CC(O)C(O)C(OC1OC(CO)C(O)C(O)C1O)C(O)CO (stereo not given) | 34.4 | 33.6 | 40.3 | 37.8 | 35.3 | 35.6 | 43.9 | 31.4 | 34.4 | 
CC1(C)CCC2=C(O1)c1ccccc1C(=Nc1ccc([N+](=O)[O-])cc1)C2=O | 25.2 | > 100 | > 100 | 25.3 | 52.9 | 29.1 | 32.8 | 30.1 | > 100 | 18.3
NS(=O)(=O)c1ccc(-c2ccc([As](=O)(O)O)cc2)cc1 | > 100 | > 100 | > 100 | > 100 | > 100 | > 100 | > 100 | > 100 | > 100 | 
N#CCCN(CCCCN(CCC#N)C(=O)Nc1ccccc1)C(=O)Nc1ccccc1 | > 100 | > 100 | > 100 | > 100 | > 100 | > 100 | > 100 |  |  | 
CCSC12OC3(CCCCCN3C1=O)C1C(=O)N(c3ccccc3)C(=O)C12 (stereo not given) | > 100 | > 100 | > 100 | > 100 | > 100 | > 100 | > 100 | > 100 | > 100 | 
Clc1nc2nc(N3CCNCC3)nc(N3CCCC3)c2[nH]1 | 34.2 | 32.7 | 43.1 | > 100 | 32 | 32.7 | 35.4 | 37.1 | 37.2 | 
COc1ccc(NC(=O)CSC(=O)c2ccccc2)c(SCCSSCCSc2cc(OC)ccc2NC(=O)CSC(=O)c2ccccc2)c1 | > 100 | > 100 | > 100 | > 100 | > 100 | > 100 | > 100 | > 100 | > 100 | 
O/N=C1\C/C(=N\O)c2c(Br)sc(Br)c21 | > 100 | 97.8 | 92.7 | > 100 | 59.3 | > 100 | > 100 | > 100 | > 100 | 
CCCN=C1NC(C)=CSC(Nc2ccccc2)=C1C#N |  |  | > 100 |  | > 100 |  | > 100 |  |  | 
NC1(c2cc3ccccc3s2)CCCCCC1 | 29.3 | 32.6 | 32.6 | 38.4 | 34 | 28.6 | 22.1 | 30.1 | 30.5 | 
COc1cc(C(c2ccccc2)N2C(=O)CC[C@H]2C(=O)O)cc(OC)c1OC (stereo not given in full) | > 100 | > 100 | > 100 | > 100 | > 100 | > 100 | > 100 | > 100 | > 100 | 
COC(=O)N[C@@H]1C[C@H]2CC[C@]1(O[Si](C(C)C)(C(C)C)C(C)C)C(=O)C2 | 47.8 | 32 | > 100 | 33 | 39.3 | > 100 | 35.3 | 38.4 | 70.6 | 
